Earlier results as cited in article PMC10615786 (Cell, 2023).

What was measured:
ROS level = conditions: general statement, no data or reference printed
LRX4 = conditions: modulates salt tolerance
LRX3 = conditions: modulates salt tolerance

| Compound | ROS levels in vivo (ROS level) | binding to LRX4 (LRX4) | binding to LRX3 (LRX3) |
| --- | --- | --- | --- |
| c1ccc2c(c1)[I+]c1ccccc1-2 [DPI] | lower ROS levels in vivo |  |  |
| sRALF23: stigma-expressing RALF peptide (ATRRYISYGALRRNTIPCSRRGASYYNCRRGAQANPYSRGCSAITRCRRS; UniProt Q9LUS7 89-138, looked up) |  | bind to LRX3 and LRX4 | bind to LRX3 and LRX4 |
